Results on 3 molecules are retold here after US3944549A, “Amino derivatives of 1,4-benzodioxan” (priority 1972, dated 1976).

Data set [1] concerns adrenergic receptors. Description: α-blocking action: reversal of the hypertensive effect of adrenalin. Type of data set: in vivo, dogs.
The nature of data set [2]: Solubility in water. Type of data set: physicochemical.
Data set [3] deals with vertigo. Kind of data set: Vertigo in clinical tests. It counts as in vivo, man.
Data set [4] is described as follows: Acute toxicity, intravenous, in mice. The note with it: mouse, in vivo.
In data set [5] the test system is femoral artery. Kind of data set: Vasodilating properties: injection into the femoral artery in dogs. Type of data set: in vivo. As to conditions: injected locally into the femoral or vertebral artery. The protocol:
On injection into the femoral artery, no effect is observed at doses of less than 100 μg/kg. […] At these doses, no effect is observed on the arterial pressure AP measured in accordance with the usual conditions.
When administered intra-arterially, the product of Example 6 is injected directly into the femoral artery. The flow rate is increased by 200% from a dose of 10 μg.

Data set [6] concerns vertebral artery. Description: Vasodilating properties: injection into the vertebral artery in dogs. It counts as in vivo. The note with it: injected locally into the femoral or vertebral artery. The protocol: On injection into the vertebral artery, no effect is observed at doses of less than 1 mg/kg. At a dose of 10 mg/kg, the flow rate increases by 37% and at a dose of 20 mg/kg it only increases by 27%. At these two doses, the arterial pressure decreases respectively by 14 and 28% although no effect had been observed during the injection into the femoral artery.

The subject of data set [7] is intestinal barrier. Description: Intraduodenal administration in dogs: cardiovascular effects and passage through the intestinal barrier. As to conditions: intraduodenally. Type of data set: in vivo.
Description: (§1) In the case of intravenous administration, the tests were carried out on 4 anaesthetised dogs. The product is perfused intravenously over the course of 5 minutes at doses of 2.5, 5 and 10 mg/kg and, in one test, is administered intraduodenally at a dose of 10 mg/kg.
The nature of data set [8]: Analgesic activity, subcutaneous. Type of data set: in vivo. As to conditions: injected subcutaneously.
Data set [9] concerns vertebral, femoral and mesenteric artery flow rates. Kind of data set: Vasodilating and cardiovascular properties on intravenous administration in dogs.
Description: During the series of pharmacological tests, the following parameters were used:
Arterial pressure (abbreviated to AP): this parameter, expressed in mm Hg) is evaluated in accordance with the usual conditions.
Arterial resistance: this parameter (expressed in dynes/sec./cm^-^5) is calculated according to the ratio [formula] Cardiac index: this parameter is expressed in (ml/min.)/kg. Systolic index: this parameter is equal to the ratio cardiac index/frequency.
Cardiac work: this parameter (expressed in kgm/min.) is calculated according to the relationship: Cardiac work = average AP (mm Hg) × 1.36 = cardiac output (1/min.) × 10^-^3.
Ratio dp/dt: this parameter corresponds to the variation in pressure expressed in mm Hg per second (in English: Rate of rise of left ventricular pressure).
The technique used to measure the ratio dp/dt is as follows:
The cardiac output is determined in Beagle dogs weighing 10 to 15 kg, anesthetised with pentobarbital, by injecting Carbiogreen (1 mg in 0.5 ml) into the right ventricle. A catheter introduced via the carotid artery into the aorta makes it possible to aspirate arterial blood at the rate of 25 ml/min. and to pass it in front of the photoelectric cell of a Beckman cardiodensitometer. The results are interpreted in accordance with the Hamilton method.
as §1
Data set [10] relates to digestive ulcers. The note with it: TOLDY et al. 1966; cited from earlier work.

Counter-ions that a name gives are not always drawn.

Take `OCCN1CCN(CC2COc3ccccc3O2)CC1` (stereo not shown) [Example 1, 1-[2-(1,4-Benzodioxanyl)-methyl]-4-(2-hydroxyethyl)-piperazine dihydrochloride]: the α-blocking activity result in data set [1] (administered parenterally) is reported as “α-blocking”. In addition, the solubility in water entry in data set [2] was “soluble in water”. Also, the vertigo entry in [3] was “caused vertigo in the majority of cases”.

On to `CC(C)(C)c1ccc2c(c1)OCC(CN1CCN(CCO)CC1)O2` (stereo not shown) [Example 5, 1-[2-(6- or 7-{tertiarybutyl}-1,4-benzodioxanyl)-methyl]-4-(2-hydroxyethyl)-piperazine dihydrochloride], for which the LD50 in [4] (read-out: LD-50 I.V. in mice) stood at 140 ± 8 mg/kg. In [4] (read-out: Maximum non-toxic dose), the NOAEL came out at 100 mg/kg. In addition, the “femoral flow rate, local injection” value in data set [5] is recorded as “increases both these flow rates in proportion to the doses, but with a preference for the femoral flow rate”. Further, in data set [6], the “vertebral flow rate, local injection” value is given as “increases both these flow rates in proportion to the doses, but with a preference for the femoral flow rate”. Also, the minimal effective dose in [7] (Canis lupus familiaris, intraduodenal, read-out: dose from which the pulse rate decreases) was determined as 7 mg/kg. Further, the vasodilating effect entry in data set [7] (successively 3.5, 7, 15 and 35 mg/kg) was “no vasodilating effect”. Moreover, the analgesic activity result in [8] was “analgesic activity of the morphine type”. Further, in [9] (2 dogs, i.v.), the “dose dependence of femoral vasodilating action” value is listed as “not proportional to the dose”, the “dose from which femoral vasodilating action is maximum” value worked out at 3.5 mg/kg and the vertebral dilating action result is given as “no vertebral dilating action”. In addition, the bradycardia result in [9] (2 dogs, i.v., 15 mg/kg (last dose)) is “a bradycardia”. In addition, the “femoral vasodilating action, maximum” value in data set [9] (2 dogs, i.v., from 3.5 mg/kg, increase (+)) worked out at 60%. Besides, in data set [9] (2 dogs, i.v., up to 15 mg/kg), the “effect on the AP” value was “no effect on the AP”. Also, in [9] (summary), the vasodilating effect entry is “exclusively peripheral and very moderate vasodilating effect”.

Turning to `OCCN1CCN(CC2COc3ccccc3O2)CC1` (stereo not shown) [free base, 1-[2-(1,4-benzodioxanyl)-methyl]-4-(2-hydroxyethyl)-piperazine, reference compound], the “α-blocking activity (counteracting the hypertensive effects of adrenalin)” value in data set [1] (orally to dogs) is reported as “does not show any α-blocking activity”. Also, the “activity in the treatment of digestive ulcers” value in data set [10] is on record as “devoid of such activity”.
